Measurements taken from patent EP0321849A2, “Method for the enzymatic hydrolysis of alpha-aminoadipinyl monoamino compounds” (HOECHST AKTIENGESELLSCHAFT, priority 1987, dated 1989).

Columns and labels:
γ-GTP [1] = target: T1, γ-GTP (Bacillus subtilis, UniProt P54422); experiment: Inhibition of γ-GTP by inhibitors (irreversible / reversible); assay type: biochemical; parameters: Das Enzym kommt in Mikroorganismen periplasmatisch und extrazellulär vor; endogenous in cells; host or cells: Bacteria cultured in nutrient medium (genera Pseudomonas, Proteus, Arthrobacter, Bacillus); preferred Bac. subtilis IFO 3025; conditions: in the presence of the substance; kind of inhibition (irreversible or reversible)
γ-GTP [2] = target: T1, γ-GTP; experiment: Enzymatic hydrolysis of α-aminoadipinyl cephalosporins by γ-GTP enzyme concentrate (preparative conversion); assay type: biochemical, Bac. subtilis IFO 3025; parameters: Das so gewonnene Kulturfiltrat enthält 1350 U γ-GTP-Aktivität; endogenous in cells; host or cells: Bacillus subtilis IFO 3025 (natural producer); Culture filtrate, ammonium sulfate precipitation, DEAE-cellulose
Protocol: Analog Beispiel 1 wird eine Vorkultur mit Bac. subtilis IFO 3025 angezogen. 50 ml dieser Kultur dienen als Inokulum für 2 l Hauptkulturlösung in einem 5 l-Fermenter. Die Anzucht des Stammes erfolgt bei 34°C und einem Sauerstoffpartialdruck von 70 %. Die Bildung der γ-GTP wird photometrisch verfolgt und die Kultur bei maximalem Enzymtiter abgeerntet. Unter den gegebenen Bedingungen wird ein γ-GTP-Titer von 150 mU/ml Kulturlösung erreicht.
9 l Kulturlösung werden mittels Cross-Flow-Filtration (Ausschlußgrenze 300 000 Dalton) in Kulturfiltrat und Zellmasse getrennt. Das so gewonnene Kulturfiltrat enthält 1350 U γ-GTP-Aktivität.
Durch Zugabe von Ammoniumsulfat ad 70 % d. S. wird das Enzym gefällt und in einem 1/10 des Volumens wieder aufgenommen. Nach Dialyse gegen 20 mM Tris, pH 8,0, wird über eine DEAE-Cellulose Säule (DE 52, Whatman) das Enzym weiter gereinigt. Die aktiven Eluate werden vereinigt und konzentriert. Ein so gewonnenes γ-GTP-Präparat (mit ca. 25 U γ-GTP/ml) wird für die Umsetzungen verwendet.
Für eine präparative Umsetzung von Desacetyl-CPC wird folgender Ansatz gewählt: 100 µl Enzymkonzentrat, hergestellt nach Beispiel 3, und 100 µl 40 mM Desacetyl-CPC, gelöst in 20 mM Kaliumphosphatpuffer, pH 7,3 werden bei einer Temperatur von 33°C inkubiert. […]

[3] = substrate: N[C@@H](CCC(=O)Nc1ccc([N+](=O)[O-])cc1)C(=O)O; experiment: Km determination of γ-GTP with L-γ-Glutamylparanitroanilid as substrate; assay type: biochemical; conditions: other: substrate of γ-GTP, pH 8, 37.0 °C

[N-]=[N+]=CC(=O)OC[C@H](N)C(=O)O [Azaserin]
Hemmung der γ-GTP (γ-GTP [1]): irreversibel gehemmt

NC(=O)CI [Jodacetamid]
Hemmung der γ-GTP (γ-GTP [1]): irreversibel gehemmt

N[C@H](CCCC(=O)N[C@@H]1C(=O)N2C(C(=O)O)=C(CO)CS[C@H]12)C(=O)O [Desacetyl-CPC]
Desacetyl-7-Aminocephalosporansäure formed (γ-GTP [2]; 100 µl enzyme concentrate + 100 µl 40 mM substrate in 20 mM potassium phosphate buffer pH 7,3, 33°C): ≤ 16%

[Cu] [Kupfer]
Hemmung der γ-GTP (γ-GTP [1]): reversible Hemmung

CC(=O)OCC1=C(C(=O)O)N2C(=O)[C@@H](NC(=O)CCC[C@@H](N)C(=O)O)[C@H]2SC1 [CPC, Cephalosporin C]
7-Aminocephalosporansäure released (γ-GTP [2]; incubation conditions as in Beispiel 4 (pH 7,3, 33°C)): 3%

CC(=O)OCC1=C(C(=O)O)N2C(=O)[C@@H](N)[C@H]2SC1 [7-Aminocephalosporansäure]
Hemmung der γ-GTP (γ-GTP [1]): reversible Hemmung

[Hg] [Quecksilber]
Hemmung der γ-GTP (γ-GTP [1]): reversible Hemmung

B1: γ-Glutamyltranspeptidase (γ-GTP) (Bacillus subtilis subsp. subtilis str. 168) (protein)
chain 1: DEYKQVDVGKDGMVATAHPLASEIGADVLKKGGNAIDAAVAIQFALNVTEPMMSGIGGGGFMMVYDGKTKDTTIIDSRERAPAGATPDMFLDENGKAIPFSERVTKGTAVGVPGTLKGLEEALDKWGTRSMKQLITPSIKLAEKGFPIDSVLAEAISDYQEKLSRTAAKDVFLPNGEPLKEGDTLIQKDLAKTFKLIRSKGTDAFYKGKFAKTLSDTVQDFGGSMTEKDLENYDITIDEPIWGDYQGYQIATTPPPSSGGIFLLQMLKILDHFNLSQYDVRSWEKYQLLAETMHLSYADRASYAGDPEFVNVPLKGLLHPDYIKERQQLINLDQVNKKPKAGDPWKYQEGSANYKQVEQPKDKVEGQ
chain 2: TTHFTVADRWGNVVSYTTTIEQLFGTGIMVPDYGVILNNELTDFDAIPGGANEVQPNKRPLSSMTPTILFKDDKPVLTVGSPGGATIISSVLQTILYHIEYGMELKAAVEEPRIYTNSMSSYRYEDGVPKDVLSKLNGMGHKFGTSPVDIGNVQSISIDHENGTFKGVADSSRNGAAIGINLKRK
notes: Das Enzym kommt in Mikroorganismen periplasmatisch und extrazellulär vor; endogenous in cells; host or cells: Bacteria cultured in nutrient medium (genera Pseudomonas, Proteus, Arthrobacter, Bacillus); preferred Bac. subtilis IFO 3025
Km [3]: 17,8 µM
